Activity calls are given as the source filed them. The calls are words filed in the database; no cut-off is given here.
Legend:
[1] = Inhibition of N-type calcium channel in human IMR-32 cells assessed as intracellular calcium concentration by FLIPR; format: cell-based
[2] = target: Voltage-gated inwardly rectifying potassium channel KCNH2 (Homo sapiens, UniProt Q12809); assay: Inhibition of human ERG expressed in CHO cells by Rb efflux assay
IMR-32 = assay: Selectivity ratio of IC50 for human ERG to IC50 for N-type calcium channel in human IMR-32 cells; format: cell-based
Cytochrome P450 2C9 = Cytochrome P450 2C9 (Homo sapiens, UniProt P11712); assay: Inhibition of human recombinant CYP2C9 after 45 mins
Chain of Cytochrome P450 2C9 (P11712 whole entry): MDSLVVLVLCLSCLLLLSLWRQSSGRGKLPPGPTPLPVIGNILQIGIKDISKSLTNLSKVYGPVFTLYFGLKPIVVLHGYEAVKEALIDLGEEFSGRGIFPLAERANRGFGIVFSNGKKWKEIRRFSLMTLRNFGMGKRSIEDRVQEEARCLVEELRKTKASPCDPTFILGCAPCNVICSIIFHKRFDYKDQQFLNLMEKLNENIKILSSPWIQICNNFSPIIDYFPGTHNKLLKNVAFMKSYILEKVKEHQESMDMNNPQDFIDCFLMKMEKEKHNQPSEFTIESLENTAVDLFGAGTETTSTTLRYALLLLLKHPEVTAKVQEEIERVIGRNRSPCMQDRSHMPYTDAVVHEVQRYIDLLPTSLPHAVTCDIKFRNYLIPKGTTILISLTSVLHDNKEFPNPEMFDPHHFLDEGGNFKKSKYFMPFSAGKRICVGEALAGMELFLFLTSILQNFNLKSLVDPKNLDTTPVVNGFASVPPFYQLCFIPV

Cytochrome P450 1A2 = target: T1, Cytochrome P450 1A2 (Homo sapiens, UniProt P05177); assay: Inhibition of human recombinant CYP1A2 after 15 mins
T1 sequence (P05177 whole entry): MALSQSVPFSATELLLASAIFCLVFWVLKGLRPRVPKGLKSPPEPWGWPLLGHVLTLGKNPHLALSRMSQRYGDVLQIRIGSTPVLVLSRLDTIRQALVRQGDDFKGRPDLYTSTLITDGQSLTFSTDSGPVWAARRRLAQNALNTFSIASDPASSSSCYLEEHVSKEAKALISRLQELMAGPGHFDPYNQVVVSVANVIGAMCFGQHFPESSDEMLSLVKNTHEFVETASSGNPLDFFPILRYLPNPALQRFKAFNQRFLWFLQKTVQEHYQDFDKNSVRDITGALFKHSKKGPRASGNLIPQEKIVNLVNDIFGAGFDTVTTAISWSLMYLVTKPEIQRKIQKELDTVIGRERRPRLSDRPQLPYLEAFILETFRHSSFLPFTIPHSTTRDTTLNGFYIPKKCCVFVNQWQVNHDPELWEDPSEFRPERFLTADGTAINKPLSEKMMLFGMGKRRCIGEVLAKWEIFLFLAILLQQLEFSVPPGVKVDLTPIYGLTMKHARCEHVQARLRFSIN

Cytochrome P450 2C19 = Cytochrome P450 2C19 (Homo sapiens, UniProt P33261); assay: Inhibition of human recombinant CYP2C19 after 30 mins
Chain of Cytochrome P450 2C19 (P33261 whole entry): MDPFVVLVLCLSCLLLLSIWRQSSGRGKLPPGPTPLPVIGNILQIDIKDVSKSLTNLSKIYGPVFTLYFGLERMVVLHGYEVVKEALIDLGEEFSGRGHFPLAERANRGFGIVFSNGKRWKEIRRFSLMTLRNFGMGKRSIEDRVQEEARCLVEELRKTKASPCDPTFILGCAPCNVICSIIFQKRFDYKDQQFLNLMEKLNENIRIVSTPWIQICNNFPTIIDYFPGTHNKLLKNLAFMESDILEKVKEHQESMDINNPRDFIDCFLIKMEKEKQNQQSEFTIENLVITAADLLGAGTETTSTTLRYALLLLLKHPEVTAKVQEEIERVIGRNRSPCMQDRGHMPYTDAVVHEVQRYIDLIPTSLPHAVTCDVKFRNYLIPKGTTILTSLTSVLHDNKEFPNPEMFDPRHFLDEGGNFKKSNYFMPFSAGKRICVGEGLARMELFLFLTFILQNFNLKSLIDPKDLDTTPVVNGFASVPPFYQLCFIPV

[3] = Aqueous solubility in Japanese Pharmacopoeia at pH 1.2; format: physicochemical; conditions: aqueous Japanese Pharmacopoeia medium, pH 1.2, pH 1.2
[4] = Aqueous solubility in Japanese Pharmacopoeia at pH 6.8; format: physicochemical; conditions: aqueous Japanese Pharmacopoeia medium, pH 6.8, pH 6.8
CYP3A4 = CYP3A4 (Homo sapiens, UniProt P08684); assay: Inhibition of CYP3A4 in human liver microsomes assessed as residual activity assessed as residual activity using midazolam as substrate preincubated for 30 mins by LC/MS/MS analysis; conditions: probe midazolam
Chain of CYP3A4 (P08684 whole entry): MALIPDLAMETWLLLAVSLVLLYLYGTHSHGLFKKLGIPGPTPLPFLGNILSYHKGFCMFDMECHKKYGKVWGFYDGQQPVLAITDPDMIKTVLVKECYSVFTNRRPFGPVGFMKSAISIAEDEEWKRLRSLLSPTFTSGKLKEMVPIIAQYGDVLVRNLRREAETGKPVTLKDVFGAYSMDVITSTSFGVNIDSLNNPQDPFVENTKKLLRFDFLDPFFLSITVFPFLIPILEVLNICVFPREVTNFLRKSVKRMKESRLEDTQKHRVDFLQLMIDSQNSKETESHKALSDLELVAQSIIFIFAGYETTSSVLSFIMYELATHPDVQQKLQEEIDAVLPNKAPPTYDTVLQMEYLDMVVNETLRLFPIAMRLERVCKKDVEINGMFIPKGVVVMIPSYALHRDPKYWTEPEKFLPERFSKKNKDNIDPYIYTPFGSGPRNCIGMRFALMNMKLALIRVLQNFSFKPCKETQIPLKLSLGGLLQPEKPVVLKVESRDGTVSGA

Cytochrome P450 2D6 = Cytochrome P450 2D6 (Homo sapiens, UniProt P10635); assay: Inhibition of human recombinant CYP2D6 after 30 mins
Chain of Cytochrome P450 2D6 (P10635 whole entry): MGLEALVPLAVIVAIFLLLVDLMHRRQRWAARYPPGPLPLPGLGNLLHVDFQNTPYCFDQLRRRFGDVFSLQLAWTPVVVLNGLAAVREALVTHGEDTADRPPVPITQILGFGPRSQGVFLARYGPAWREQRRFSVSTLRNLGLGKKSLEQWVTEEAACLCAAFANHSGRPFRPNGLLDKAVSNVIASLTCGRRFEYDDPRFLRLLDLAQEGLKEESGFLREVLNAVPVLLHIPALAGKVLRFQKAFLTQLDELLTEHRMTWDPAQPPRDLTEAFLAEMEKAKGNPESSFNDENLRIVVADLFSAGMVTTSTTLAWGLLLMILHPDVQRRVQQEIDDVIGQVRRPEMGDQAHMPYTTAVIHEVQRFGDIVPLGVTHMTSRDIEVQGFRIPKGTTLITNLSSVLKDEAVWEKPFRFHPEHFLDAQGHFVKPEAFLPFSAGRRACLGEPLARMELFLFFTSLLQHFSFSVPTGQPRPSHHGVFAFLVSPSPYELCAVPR

[5] = Inhibition of N-type calcium channel in human IMR-32 cells under holding potential at -90 mV state-biased condition by whole cell patch-clamp electrophysiological method
[6] = Inhibition of N-type calcium channel in human IMR-32 cells under holding potential at -70 mV inactivated state by whole cell patch-clamp electrophysiological method
Rattus norvegicus [7] = assay: Antiallodynic activity in Sprague-Dawley rat spinal nerve ligation model of neuropathic pain assessed as reduction in mechanical allodynia at 3 to 30 mg/kg, po; format: functional, organism-based
Rattus norvegicus [8] = assay: Antiallodynic activity in Sprague-Dawley rat spinal nerve ligation model of neuropathic pain assessed as maximal reduction in mechanical allodynia at 30 mg/kg, po; format: functional, organism-based; parameters: dose 30 mg/kg
hERG (KCNH2) = hERG (KCNH2) (Homo sapiens, UniProt Q12809); assay: Inhibition of human ERG expressed in CHO cells at 10 uM by Rb efflux assay; format: cell-based; conditions: CHO cells expressing human ERG
Chain of hERG (KCNH2) (Q12809 whole entry): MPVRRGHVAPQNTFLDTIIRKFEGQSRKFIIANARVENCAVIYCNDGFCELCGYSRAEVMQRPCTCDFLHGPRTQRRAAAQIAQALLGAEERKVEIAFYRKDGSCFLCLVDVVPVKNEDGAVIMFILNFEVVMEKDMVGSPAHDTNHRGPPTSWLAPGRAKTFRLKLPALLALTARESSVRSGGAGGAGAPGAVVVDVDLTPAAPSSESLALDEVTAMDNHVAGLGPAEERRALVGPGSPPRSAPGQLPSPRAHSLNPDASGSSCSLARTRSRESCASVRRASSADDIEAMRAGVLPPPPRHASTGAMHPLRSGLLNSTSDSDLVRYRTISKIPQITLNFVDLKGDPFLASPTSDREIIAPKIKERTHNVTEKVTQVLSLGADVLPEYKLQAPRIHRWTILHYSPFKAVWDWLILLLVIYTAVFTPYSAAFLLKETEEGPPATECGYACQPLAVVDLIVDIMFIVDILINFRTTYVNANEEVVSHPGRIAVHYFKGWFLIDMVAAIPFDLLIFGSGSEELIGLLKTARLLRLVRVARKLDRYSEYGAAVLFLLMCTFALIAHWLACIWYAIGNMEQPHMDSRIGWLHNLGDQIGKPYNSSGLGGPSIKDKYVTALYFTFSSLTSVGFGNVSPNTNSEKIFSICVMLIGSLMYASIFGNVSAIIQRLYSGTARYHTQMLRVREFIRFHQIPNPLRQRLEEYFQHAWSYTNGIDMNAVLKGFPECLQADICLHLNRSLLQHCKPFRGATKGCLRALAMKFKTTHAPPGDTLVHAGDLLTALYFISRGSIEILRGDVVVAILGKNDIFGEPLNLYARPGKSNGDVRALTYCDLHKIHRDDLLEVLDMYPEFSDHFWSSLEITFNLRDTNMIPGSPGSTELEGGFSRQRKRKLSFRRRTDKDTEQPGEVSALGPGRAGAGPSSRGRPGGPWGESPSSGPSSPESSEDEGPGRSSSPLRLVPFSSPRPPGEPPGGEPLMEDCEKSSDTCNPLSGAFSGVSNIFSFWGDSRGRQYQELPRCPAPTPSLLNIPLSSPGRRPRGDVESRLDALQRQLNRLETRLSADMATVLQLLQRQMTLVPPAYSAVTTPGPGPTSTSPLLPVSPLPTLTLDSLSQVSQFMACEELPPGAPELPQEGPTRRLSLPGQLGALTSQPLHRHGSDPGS

Chain of Voltage-gated inwardly rectifying potassium channel KCNH2 (Q12809 whole entry): as above

O=C(CNCC1CCCCC1)N1CCc2ccccc2C1C1CCCCC1 (stereo unspecified)
IC50 [1]: 1300 nM
IC50 [2]: 26 µM
Ratio IC50 (IMR-32): 20

O=C(CNCC1(O)CCCC1)N1CCc2ccccc2C1C1CCCCC1 (stereo unspecified)
IC50 [1]: 2800 nM
IC50 [2]: 78.6 µM
Ratio IC50 (IMR-32): 28.1

COc1ccccc1CCNCC(=O)N1CCc2ccccc2C1C1CCCCC1 (stereo unspecified)
IC50 [1]: 600 nM
IC50 (Cytochrome P450 2C9): 4.8 µM
IC50 (Cytochrome P450 1A2): 26 µM
IC50 (Cytochrome P450 2C19): 3 µM
solubility [3]: > 100 µM
solubility [4]: > 100 µM
activity at 30 min (CYP3A4): 53%
IC50 (Cytochrome P450 2D6): 370 nM

O=C(CNCCC1(O)CCCCC1)N1CCc2ccccc2C1C1CCCCC1 (stereo unspecified)
IC50 [1]: 1700 nM

O=C(CNCC1(O)CCCCC1)N1CCc2ccccc2[C@@H]1C1CCCCC1
IC50 [1]: 1000 nM
IC50 [5]: 12.7 µM
IC50 [6]: 1700 nM
inhibition (Rattus norvegicus [7]): Active
inhibition (Rattus norvegicus [8]): Active

O=C(CNCCc1ccccc1O)N1CCc2ccccc2C1C1CCCCC1 (stereo unspecified)
IC50 [1]: 3000 nM
inhibition at 10 µM (hERG (KCNH2)): 54.4%

O=C(O)c1ccc(CCNCC(=O)N2CCc3ccccc3C2C2CCCCC2)cc1 (stereo unspecified)
IC50 [1]: > 10000 nM
inhibition at 10 µM (hERG (KCNH2)): 9%

O=C(CNCC1(O)CCCCC1)N1CCc2ccccc2[C@H]1C1CCCCC1
IC50 [1]: 1500 nM

COc1c(OC(C)(C)C)cc(CN2CC(=O)N(CCCCCC(c3ccc(F)cc3)c3ccc(F)cc3)CC2=O)cc1OC(C)(C)C
IC50 [1]: 430 nM
IC50 [2]: > 100 µM
solubility [3]: < 1 µM
solubility [4]: < 1 µM

O=C(CNCCc1c(Cl)cccc1Cl)N1CCc2ccccc2C1C1CCCCC1 (stereo unspecified)
IC50 [1]: 2400 nM

O=C(CNCC1(O)CCCCCC1)N1CCc2ccccc2C1C1CCCCC1 (stereo unspecified)
IC50 [1]: 2600 nM
IC50 [2]: 50.1 µM
Ratio IC50 (IMR-32): 19.6

COC(=O)c1ccc(CCNCC(=O)N2CCc3ccccc3C2C2CCCCC2)cc1 (stereo unspecified)
IC50 [1]: 2300 nM
inhibition at 10 µM (hERG (KCNH2)): 71.7%

O=C(CNCCc1ccccc1)N1CCc2ccccc2C1C1CCCCC1 (stereo unspecified)
IC50 [1]: 1300 nM
inhibition at 10 µM (hERG (KCNH2)): 57.8%

COc1cc(CN2CCN(CCCCCC(c3ccc(F)cc3)c3ccc(F)cc3)CC2)cc(OC)c1OC
IC50 [1]: 1100 nM
IC50 [2]: 3.4 µM
solubility [3]: > 100 µM
solubility [4]: < 1 µM

From ChEMBL document CHEMBL3351320, “Discovery of novel tetrahydroisoquinoline derivatives as orally active N-type calcium channel blockers with high selectivity for hERG potassium channels” (Bioorg Med Chem, 2014)
